Test [1] has as its target Histone deacetylase 1 (Homo sapiens, UniProt Q13547). Description: Inhibition of human HDAC1.
Test [2] has as its target Histone deacetylase 3 (Homo sapiens, UniProt O15379). Description: Inhibition of human HDAC3.
Test [3] deals with Histone deacetylase 4 (Homo sapiens, UniProt P56524). As to the kind of experiment: Inhibition of human HDAC4.
The target of test [4] is T1, Protein deacetylase HDAC6 (Homo sapiens, UniProt Q9UBN7).
T1 sequence (Q9UBN7 whole entry): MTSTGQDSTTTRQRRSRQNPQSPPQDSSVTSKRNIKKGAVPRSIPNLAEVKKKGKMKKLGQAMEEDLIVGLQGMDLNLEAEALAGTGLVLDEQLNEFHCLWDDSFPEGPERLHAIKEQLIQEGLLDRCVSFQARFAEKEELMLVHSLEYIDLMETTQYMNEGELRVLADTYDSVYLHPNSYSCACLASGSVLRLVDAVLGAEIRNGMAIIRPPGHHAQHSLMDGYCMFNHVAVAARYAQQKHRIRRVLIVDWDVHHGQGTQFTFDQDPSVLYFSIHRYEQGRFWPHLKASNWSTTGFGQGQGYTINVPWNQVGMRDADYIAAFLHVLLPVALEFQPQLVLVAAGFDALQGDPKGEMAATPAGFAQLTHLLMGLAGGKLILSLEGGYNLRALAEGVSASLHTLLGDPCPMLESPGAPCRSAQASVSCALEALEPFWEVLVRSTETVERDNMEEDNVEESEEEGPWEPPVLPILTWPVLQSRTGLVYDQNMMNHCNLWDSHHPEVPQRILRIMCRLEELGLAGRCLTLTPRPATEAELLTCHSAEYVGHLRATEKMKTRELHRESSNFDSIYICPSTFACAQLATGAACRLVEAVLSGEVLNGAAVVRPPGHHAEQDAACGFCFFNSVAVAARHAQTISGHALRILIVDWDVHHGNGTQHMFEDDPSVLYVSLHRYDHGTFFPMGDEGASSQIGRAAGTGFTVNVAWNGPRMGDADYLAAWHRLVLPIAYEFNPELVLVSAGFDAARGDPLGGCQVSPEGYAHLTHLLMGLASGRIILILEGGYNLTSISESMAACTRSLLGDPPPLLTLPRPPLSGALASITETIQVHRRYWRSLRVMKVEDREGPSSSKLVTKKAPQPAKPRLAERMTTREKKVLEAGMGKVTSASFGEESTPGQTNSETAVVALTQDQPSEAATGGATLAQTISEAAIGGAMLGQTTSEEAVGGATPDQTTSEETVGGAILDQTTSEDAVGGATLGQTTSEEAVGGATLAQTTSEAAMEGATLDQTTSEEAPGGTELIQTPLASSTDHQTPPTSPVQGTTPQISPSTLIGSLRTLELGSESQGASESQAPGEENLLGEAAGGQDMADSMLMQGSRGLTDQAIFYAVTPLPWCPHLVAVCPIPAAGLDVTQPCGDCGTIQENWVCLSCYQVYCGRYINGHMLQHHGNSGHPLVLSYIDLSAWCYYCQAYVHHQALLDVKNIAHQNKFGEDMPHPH
As to the kind of experiment: Inhibition of human HDAC6.

The results in this text go back to ChEMBL document CHEMBL3596180, “Evaluation of histone deacetylase inhibitors (HDACi) as therapeutic leads for human African trypanosomiasis (HAT)” (Bioorg Med Chem, 2015).

Sequence of Histone deacetylase 1 (Q13547 whole entry): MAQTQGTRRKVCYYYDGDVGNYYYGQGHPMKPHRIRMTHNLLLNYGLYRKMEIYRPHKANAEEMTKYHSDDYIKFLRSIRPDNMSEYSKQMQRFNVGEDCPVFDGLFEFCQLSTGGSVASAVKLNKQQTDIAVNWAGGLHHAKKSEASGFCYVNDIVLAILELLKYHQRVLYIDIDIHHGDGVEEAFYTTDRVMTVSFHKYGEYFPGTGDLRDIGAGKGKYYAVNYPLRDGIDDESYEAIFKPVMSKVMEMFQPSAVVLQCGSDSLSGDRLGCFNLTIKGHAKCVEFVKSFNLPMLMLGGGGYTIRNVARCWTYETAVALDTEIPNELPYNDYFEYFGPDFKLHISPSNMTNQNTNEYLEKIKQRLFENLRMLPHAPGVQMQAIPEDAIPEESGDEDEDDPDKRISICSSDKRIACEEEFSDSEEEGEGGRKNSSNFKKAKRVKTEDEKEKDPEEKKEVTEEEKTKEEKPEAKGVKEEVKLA
Sequence of Histone deacetylase 3 (O15379 whole entry): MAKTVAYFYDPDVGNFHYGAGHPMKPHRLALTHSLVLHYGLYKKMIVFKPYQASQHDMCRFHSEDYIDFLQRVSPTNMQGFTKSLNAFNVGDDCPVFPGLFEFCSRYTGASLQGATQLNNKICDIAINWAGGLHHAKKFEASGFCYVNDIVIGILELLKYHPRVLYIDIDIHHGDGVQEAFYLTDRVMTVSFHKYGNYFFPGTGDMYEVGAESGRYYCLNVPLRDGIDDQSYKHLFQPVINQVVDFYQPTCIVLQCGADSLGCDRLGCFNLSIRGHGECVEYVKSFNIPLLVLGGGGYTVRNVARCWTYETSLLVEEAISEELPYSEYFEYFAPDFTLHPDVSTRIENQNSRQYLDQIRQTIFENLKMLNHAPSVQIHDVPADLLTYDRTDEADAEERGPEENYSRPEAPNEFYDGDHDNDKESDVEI
Sequence of Histone deacetylase 4 (P56524 whole entry): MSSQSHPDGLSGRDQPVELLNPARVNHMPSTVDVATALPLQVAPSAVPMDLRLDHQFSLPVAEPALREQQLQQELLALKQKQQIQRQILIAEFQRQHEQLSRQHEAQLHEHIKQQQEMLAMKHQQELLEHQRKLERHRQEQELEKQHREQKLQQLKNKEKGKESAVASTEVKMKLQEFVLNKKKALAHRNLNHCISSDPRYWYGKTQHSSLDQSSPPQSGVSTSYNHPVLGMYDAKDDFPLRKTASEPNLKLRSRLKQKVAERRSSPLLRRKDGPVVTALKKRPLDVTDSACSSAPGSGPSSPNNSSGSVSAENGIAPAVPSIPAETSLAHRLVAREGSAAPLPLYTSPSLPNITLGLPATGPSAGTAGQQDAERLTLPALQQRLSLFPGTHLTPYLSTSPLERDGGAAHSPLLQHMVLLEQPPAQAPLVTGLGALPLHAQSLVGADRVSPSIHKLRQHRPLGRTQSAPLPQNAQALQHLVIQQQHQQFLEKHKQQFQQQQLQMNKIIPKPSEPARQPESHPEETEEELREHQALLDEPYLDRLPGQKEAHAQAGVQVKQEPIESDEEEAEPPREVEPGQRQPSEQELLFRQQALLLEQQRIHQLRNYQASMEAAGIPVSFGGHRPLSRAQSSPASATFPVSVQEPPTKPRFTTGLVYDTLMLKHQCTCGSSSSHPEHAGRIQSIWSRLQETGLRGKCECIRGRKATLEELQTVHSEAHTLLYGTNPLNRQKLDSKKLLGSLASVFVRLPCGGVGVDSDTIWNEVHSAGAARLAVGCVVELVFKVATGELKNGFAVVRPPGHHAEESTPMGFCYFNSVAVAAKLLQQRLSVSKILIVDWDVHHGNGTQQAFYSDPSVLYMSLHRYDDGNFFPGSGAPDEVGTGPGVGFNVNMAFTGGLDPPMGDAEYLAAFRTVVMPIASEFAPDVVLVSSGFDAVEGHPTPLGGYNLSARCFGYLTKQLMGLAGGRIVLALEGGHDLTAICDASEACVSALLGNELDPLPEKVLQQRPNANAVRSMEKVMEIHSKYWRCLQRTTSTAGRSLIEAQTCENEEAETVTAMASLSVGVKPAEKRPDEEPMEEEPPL

Turning to `O=C(/C=C/C#Cc1cccc(NS(=O)(=O)c2ccccc2)c1)NO` [OXAMFLATIN], the Ki (as a rule, the dissociation constant of the complex between target and ligand, obtained from inhibition or displacement) in test [1] came out at 1.3 nM; in test [2], 2.7 nM; in test [3], 2030 nM; in test [4], 136 nM.
